Laboratory results reported in PMC10221074, “Functional Profiling of the A-Family of Venom Peptides from the Wolf Spider Lycosa shansia” (Toxins, 2023).

Legend:
G. mellonella larvae = test: Insecticidal activity by injection into larvae; type: in vivo, Galleria mellonella; settings: ethanol injected as positive control, after 5 days
Experimental: Insecticidal activity was determined using fourth and fifth instar G. mellonella larvae (L4/L5) obtained from Fauna Topics Zoobedarf Zucht und Handels GmbH (Marbach am Neckar, Germany). Because spider venom is injected via chelicerae, we opted for an injection-based assay to reflect the natural process of envenomation as described earlier. The peptides were dissolved in a 1:1 mixture of DMSO and water to a final concentration of 10 mmol/L. We injected 50 ng of each peptide into the pseudopodium using Omnican-F, 0.30 × 12 mm/G 30 × 1/2”, a 1 mL syringe adjusted to a WPI manual microsyringe injector setup. Injections with water, DMSO/water (1:1) and ethanol (90%) were used as controls, alongside untreated specimens. Insecticidal activity screenings were performed in cohorts of 10 larvae with 3 replicates (30 specimens per treatment or control). […] Survival was monitored every 24 h for 5 days. Mortality was calculated based on the ratio of dead to injected specimens.

[1] = tested on: B/Malaysia/2506/2004 (B-Mal); type: cell-based, influenza virus
A/Hamburg/05/2009 (H1N1) = type: cell-based, influenza virus
A/Hessen/1/2003 (H3N2) = type: cell-based, influenza virus
[2] = tested on: panel of seven bacterial strains; test: Antibacterial growth assay (OD600), statements on the whole panel; type: cell-based; settings: growth after 48 h
[3] = tested on: Pseudomonas aeruginosa DSM 1117; test: Antibacterial growth assay (OD600); settings: OD600, medium = 100, MH II broth, 37 °C, peptide 200 µM mixed 50 µL + 50 µL with bacteria, Figure 7: 48 h
[4] = tested on: Pseudomonas aeruginosa DSM 50071; test: Antibacterial growth assay (OD600); settings: OD600, medium = 100, MH II broth, 37 °C, peptide 200 µM mixed 50 µL + 50 µL with bacteria, Figure 7: 48 h
[5] = tested on: Micrococcus luteus DSM 20030; test: Antibacterial growth assay (OD600)
[6] = tested on: Staphylococcus aureus DSM 2569; test: Antibacterial growth assay (OD600)
[7] = tested on: Escherichia coli BL21(DE3); test: Antibacterial growth assay (OD600)
Experimental: (§1) Cryo-conserved cultures of selected bacterial strains (Table 4) were transferred to Tryptic Soy Agar (TSA) plates (Carl Roth) with a sterile inoculation loop, sealed with Parafilm (BEMIS, Neenah, WI, USA), and incubated for 1–2 days at 37 °C depending on growth. Single colonies were picked and transferred into 2–3 mL of the Mueller–Hinton II (MH II) broth (BD, Heidelberg, Germany). The bacteria were cultivated overnight, subcultured on fresh medium and grown for 3–4 h before testing at 37 °C, with shaking at 180 rpm. We measured the optical density at 600 nm (OD600) of 1 mL of the bacterial suspensions in polystyrene cuvettes (SARSTED, Nümbrecht, Germany) using an Ultrospec 10 spectrophotometer (Biochrome, Cambridge, UK). We then diluted them with the MH II medium to the preferred OD600 (Table 2). The peptides were dissolved in DMSO to generate 10 mmol/L stocks and diluted with the MH II medium to 200 µM before the assay. We used 10 µg/mL (~40 µg/mL for S. epidermidis) gentamicin and colistin (Sigma-Aldrich, Taufkirchen, Germany), DMSO and the medium only as controls. The bacteria were transferred to 96-multiwell plates with a final volume of 100 µL per well (50 µL bacterial suspension, and 50 µL test peptide). The OD600 was measured at 0, 24 and 48 h using a BioTek Eon microplate reader followed by analysis with Gen5 v2.09.

[8] = tested on: Listeria monocytogenes DSM 20600; test: Antibacterial growth assay (OD600)
Experimental: as §1

[9] = tested on: Staphylococcus epidermidis DSM 28319; test: Antibacterial growth assay (OD600)
Experimental: as §1

[10] = OD600, medium = 100, MH II broth, 37 °C, peptide 200 µM mixed 50 µL + 50 µL with bacteria, Figure 7: 48 h, replicate column 1
[11] = OD600, medium = 100, MH II broth, 37 °C, peptide 200 µM mixed 50 µL + 50 µL with bacteria, Figure 7: 48 h, replicate column 2
[12] = OD600, medium = 100, MH II broth, 37 °C, peptide 200 µM mixed 50 µL + 50 µL with bacteria, Figure 7: 48 h, replicate column 3

CCO [EtOH, ethanol, reference compound]
Mortality (G. mellonella larvae): up to 50%

SLLGLLDVVKNTVGQTG [LS-AMP-A9]
Viability of infected cells relative to aprotinin, Replicate 1 [1]: 0.09007 | Viability of infected cells relative to aprotinin, Replicate 2 [1]: 0.06966 | Viability of infected cells relative to aprotinin, Replicate 3 [1]: 0.05846 | Viability of infected cells relative to aprotinin, Replicate 1 (A/Hamburg/05/2009 (H1N1)): 0.04771 | Viability of infected cells relative to aprotinin, Replicate 2 (A/Hamburg/05/2009 (H1N1)): 0.03968 | Viability of infected cells relative to aprotinin, Replicate 3 (A/Hamburg/05/2009 (H1N1)): 0.02362 | Viability of infected cells relative to aprotinin, Replicate 1 (A/Hessen/1/2003 (H3N2)): 0.1782 | Viability of infected cells relative to aprotinin, Replicate 2 (A/Hessen/1/2003 (H3N2)): 0.2232 | Viability of infected cells relative to aprotinin, Replicate 3 (A/Hessen/1/2003 (H3N2)): 0.05605 | Antibacterial activity over the panel (in words) [2]: inhibited the growth of most of the bacteria except two | Bacterial growth relative to medium, P. aeruginosa (1117), replicate 1 ([3]; replicate column 1): 56.3665 | Bacterial growth relative to medium, P. aeruginosa (1117), replicate 2 ([3]; replicate column 2): 70.6926 | Bacterial growth relative to medium, P. aeruginosa (1117), replicate 3 ([3]; replicate column 3): 77.8728 | Bacterial growth relative to medium, P. aeruginosa (50071), replicate 1 ([4]; replicate column 1): 97.5053 | Bacterial growth relative to medium, P. aeruginosa (50071), replicate 2 ([4]; replicate column 2): 110.589 | Bacterial growth relative to medium, P. aeruginosa (50071), replicate 3 ([4]; replicate column 3): 87.613 | Antibacterial activity (in words) ([5]; M. luteus DSM 20030, growth after 48 h): able to decrease the growth | Bacterial growth relative to medium, M. luteus, replicate 1 [5, 10]: 52.4959 | Bacterial growth relative to medium, M. luteus, replicate 2 [5, 11]: 91.4416 | Bacterial growth relative to medium, M. luteus, replicate 3 [5, 12]: 32.7594 | Bacterial growth relative to medium, S. aureus, replicate 1 [6, 10]: 57.4133 | Bacterial growth relative to medium, S. aureus, replicate 2 [6, 11]: 67.8221 | Bacterial growth relative to medium, S. aureus, replicate 3 [6, 12]: 95.0991 | Antibacterial activity (in words) ([6]; S. aureus DSM 2569, growth after 48 h): able to decrease the growth | Antibacterial activity (in words) ([7]; E. coli BL21(DE3), growth after 48 h): able to decrease the growth | Bacterial growth relative to medium, E. coli, replicate 1 [7, 10]: 70.1329 | Bacterial growth relative to medium, E. coli, replicate 2 [7, 11]: 70.7996 | Bacterial growth relative to medium, E. coli, replicate 3 [7, 12]: 35.5653 | Antibacterial activity (in words) ([8]; L. monocytogenes DSM 20600, growth after 48 h): able to decrease the growth | Bacterial growth relative to medium, L. monocytogenes, replicate 1 [8, 10]: 56.5719 | Bacterial growth relative to medium, L. monocytogenes, replicate 2 [8, 11]: 67.4623 | Bacterial growth relative to medium, L. monocytogenes, replicate 3 [8, 12]: 66.1408 | Bacterial growth relative to medium, S. epidermidis, replicate 1 [9, 10]: 52.3672 | Bacterial growth relative to medium, S. epidermidis, replicate 2 [9, 11]: 52.2824 | Bacterial growth relative to medium, S. epidermidis, replicate 3 [9, 12]: 65.3172 | Antibacterial activity (in words) ([9]; S. epidermidis DSM 28319, growth after 48 h): able to decrease the growth
